Test results as given in patent USRE42152E1, “Aromatic-linked polyamine macrocyclic compounds with anti-HIV activity” (Genzyme Corporation, priority 1992, dated 2011).
Converted amounts (≈) assume the structure as drawn. Like-named read-outs stand apart in the source and are kept apart here.

Columns and labels:
HIV-1 (HTLV-IIIB) = experiment: microbe, parasite or virus in culture; type: cell-based; settings: for IC50: Human immunodeficiency virus 1, IIIB, MT4, 120 h, read-out: IC50 HIV-1 (IIIB)
HIV-2 (LAV-2 ROD) = experiment: MTT anti-viral screen, MT-4 cells challenged with HIV-2; type: cell-based; settings: for IC50: Human immunodeficiency virus 2, MT4, 120 h, read-out: IC50 HIV-2 (ROD)
[1] = Cytotoxicity by MTT method in MT-4 cells; type: cell-based
MT4 cells = settings: MT4
HIV-1, strain IIIb = experiment: microbe, parasite or virus in culture; type: cell-based; settings: Lymphocytes, HIV-1 IIIb
Description: Adsorption was allowed for 2 hours at 37° C. […] Test compound was added after stimulation and virus adsorption.
(§1) IC50 and IC90 values were calculated by comparing the p24 antigen concentrations in supernatent of treated, infected cells and uncreated, infected cells at days 11 and 14 post infection.

HIV-1, BaL = experiment: microbe, parasite or virus in culture; type: cell-based; settings: Monocytes, HIV-1 BaL
Description: Mononuclear cells were isolated from healthy, HIV-negative donors using Ficoll density separation. Cells (4×10^6/ml) were incubated for 5 days in 48 well plates (Costar) in monocyte medium consisting of RPMII640, supplemented with 20% ECS and 10% human serum. On day 5 non-adherent cells were washed out four times with warm PBS containing 2% human serum.
The monocytotropic strain of HIV-1, BaL, was used for the infection of these monocyte preparations (Pemo et al, 1 Exp Meal, 169, 933, 1989).
Adherent monocytes were exposed to […] of a 1:30 dilution of HIV-1, BaL for 30 minutes subsequently, monocyte medium was added to 1 ml/well. Adsorption was allowed for 24 hours at 37° C. Then, the wells were washed twice in order to remove excess virus and were cultivated in the presence of different drug concentrations. Thus, test compounds were added after adsorption. Every 3 to 4 days post infection the supernatant of the infected cultures was removed and replaced by fresh medium containing the test compound at the particular concentration. The concentration of viral p24 antigen was determined as described above.
as §1

Jurkat cells = experiment: Growth of exponentially growing cells (cell numbers); type: cell-based; settings: Jurkat
HIV-1 strain IIIb = experiment: Time-of-addition experiment, MT4 cells infected with HIV-1 IIIb, p24 antigen; type: cell-based; settings: HIV-1 IIIb at high multiplicity, p24 at 29 hours after infection
Description: To pinpoint the stage at which the compounds interact with the HIV replicative cycle, a time-of-addition experiment was carried out on MT4 cells infected with HIV-1 strain IIIb at high virus multiplicity to ensure that the virus replicative steps would be synchronised in the whole cell populations. Test compounds wife added 1, 2, 3, . . . 22, 23, 24 hours after infection, and vital p24 antigen production determined 29 hours after infection.
Depending on the stage at which compounds interact and the need for intracellular metabolism, addition of the compounds could be delayed for n hours without loss of activity.

MOLT4 cells = settings: MOLT4
U937 cell line = settings: U937
MT-4 cells = experiment: Cytotoxicity by MTT method in MT-4 cells; type: cell-based
[2] = system: HIV uncoating (or fusion); experiment: Sensitivity of viral RNA from freshly infected MT4 cells to RNase degradation (uncoating); type: cell-based; settings: radiolabelled viral particles, RNA harvested 4 hours after infection
Description: It was reasoned that if tincoating (fusion) was hampered, the viral capsid (or envelope) proteins would remain associated with the viral RNA genome and thus the RNA should be protected against RNase attack.

[3] = MT-4 cells, 100 CCID50, 5 days, MTT
[4] = human, MT-4 cells, 5 days, MTT; HIV-1 part of table; read-out: CC50 (HIV-1 (IIIB))
[5] = human, MT-4 cells, 5 days, MTT; HIV-2 part of table; read-out: CC50 (HIV-2 (ROD))
[6] = human; MT-4 cells, 5 days, MTT; HIV-1 part of table; read-out: CC50 (HIV-1 (IIIB))

For `c1cc(CN2CCCNCCNCCCNCC2)cc(CN2CCCNCCNCCCNCC2)c1` [A, 1,1′-[1,3-phenylenebis(methylene)]bis-1,4,8,11-tetraazacyclotetradecane], which IC50 (HIV-1 (HTLV-IIIB); [3]) is on record?
The IC50 was 0.03 µg/mL (≈ 0.0597 µM).

What about the IC50 (HIV-2 (LAV-2 ROD); [3]) of the same compound?
The IC50 was < 0.01 µg/mL.

And the CC50 at 5 days [1, 4]?
Its CC50 at 5 days is > 500 µg/mL.

What about the CC50 at 5 days [1, 5] of the same compound?
The CC50 at 5 days was > 500 µg/mL.

Which “IC50 HIV-1 (IIIB)” value (HIV-1 (HTLV-IIIB); [3]) does the source give for `Cc1cn([C@H]2C[C@H](N=[N+]=[N-])[C@@H](CO)O2)c(=O)[nH]c1=O` [AZT, reference compound] here?
Its value is <0.008 µg/mL.

And the TC50 (MT4 cells)?
Its TC50 is 23 µg/mL (≈ 86.1 µM).

What about the “IC50 day 11” value (HIV-1, strain IIIb; p24, day 11 post infection) of the same compound?
Its value is 0.00045 µg/mL (≈ 0.00168 µM).

And the “IC90 day 11” value (HIV-1, strain IIIb; p24, day 11 post infection)?
Its value is 0.0022 µg/mL (≈ 0.00823 µM).

What about the “IC50 day 14” value (HIV-1, strain IIIb; p24, day 14 post infection) of the same compound?
Its value is 0.00043 µg/mL (≈ 0.00161 µM).

What about the “IC90 day 14” value (HIV-1, strain IIIb; p24, day 14 post infection) of the same compound?
Its value is 0.0011 µg/mL (≈ 0.00412 µM).

What about the “IC50 day 11” value (HIV-1, BaL; p24, day 11 post infection) of the same compound?
The value was 0.0010 µg/mL (≈ 0.00374 µM).

And the “IC90 day 11” value (HIV-1, BaL; p24, day 11 post infection)?
The value was 0.0015 µg/mL (≈ 0.00561 µM).

And the “IC50 day 14” value (HIV-1, BaL; p24, day 14 post infection)?
Its value is 0.0010 µg/mL (≈ 0.00374 µM).

And the “IC90 day 14” value (HIV-1, BaL; p24, day 14 post infection)?
The value was 0.0017 µg/mL (≈ 0.00636 µM).

And the TC50 (Jurkat cells)?
Its TC50 is 184 µg/mL (≈ 689 µM).

What about the “n, hours addition could be delayed after infection without loss of activity” value (HIV-1 strain IIIb) of the same compound?
The value was ~4 h.

What about the TC50 (MOLT4 cells) of the same compound?
Its TC50 is 37 µg/mL (≈ 138 µM).

And the TC50 (U937 cell line)?
Its TC50 is 5 µg/mL (≈ 18.7 µM).

And the “CC50 (HIV-1 (IIIB))” value (MT-4 cells)?
The value was >1 µg/mL.

For `O=[N+]([O-])c1cc(CN2CCCNCCNCCCNCC2)cc(CN2CCCNCCNCCCNCC2)c1` [Compound C, 1,1′-[5-nitro-1,3-phenylenebis-(methylene)]-bis-1,4,8,11-tetraazacyclotetradecane], which IC50 (HIV-1 (HTLV-IIIB); [3]) is on record?
The IC50 was 0.05 µg/mL (≈ 0.0913 µM).

And the IC50 (HIV-2 (LAV-2 ROD); [3])?
Its IC50 is 0.07 µg/mL (≈ 0.128 µM).

And the CC50 at 5 days [1, 4]?
Its CC50 at 5 days is 55 µg/mL (≈ 100 µM).

And the CC50 at 5 days [1, 5]?
The CC50 at 5 days was 55 µg/mL (≈ 100 µM).

For `Br.Br.Br.Br.Br.Br.Br.Br.O.O.c1cc(CN2CCCNCCNCCNCCC2)ccc1CN1CCCNCCNCCNCCC1` [Compound M, 11,11′-[1,4-Phenylene-bis-(methylene)]-bis-1,4,7,11-tetraazacyclotetradecane octahydrobromide dihydrate], which IC50 (HIV-1 (HTLV-IIIB)) is on record?
Its IC50 is 0.03 µg/mL.

What about the IC50 (HIV-2 (LAV-2 ROD)) of the same compound?
The IC50 was 0.07 µg/mL.

And the CC50 at 5 days [1, 6]?
Its CC50 at 5 days is > 500 µg/mL.

What about the “CC50 (HIV-2 (ROD))” value (MT-4 cells; MT-4 cells, 5 days, MTT, HIV-2 part of table) of the same compound?
Its value is >500 µg/mL.

Which results are given for `Br.Br.Br.Br.Br.Br.c1cc(CN2CCNCCNCCNCC2)cc(CN2CCNCCNCCNCC2)c1` [Compound Q, 1,1′-[1,3-Phenylenebis-(methylene)]-bis-1,4,7,10-tetraazacyclododecane hexahydrobromide]?
IC50 (HIV-1 (HTLV-IIIB)): 0.07 µg/mL; IC50 (HIV-2 (LAV-2 ROD)): 0.5 µg/mL; CC50 at 5 days [1, 6]: 19 µg/mL

For `CC(C)=CCN1Cc2cc(Cl)cc3[nH]c(=S)n(c23)C[C@@H]1C` [Compound R82913], which “n, hours addition could be delayed after infection without loss of activity” value (HIV-1 strain IIIb) is on record?
The value was 6 h.

And the “resistance of viral RNA to degradation by RNase” value (shortened to “resistance of viral RNA”) [2]?
The value was “did not show this increased resistance”.

For `Br.Br.Br.Br.Br.Br.c1cc(CN2CCNCCNCCNCC2)ccc1CN1CCNCCNCCNCC1` [Compound R, 1,1′-[1,4-Phenylenebis-(methylene)]-bis-1,4,7,10-tetraazacyclododecane hexahydrobromide], which IC50 (HIV-1 (HTLV-IIIB)) is on record?
The IC50 was 0.3 µg/mL.

What about the IC50 (HIV-2 (LAV-2 ROD)) of the same compound?
The IC50 was 2.2 µg/mL.

What about the CC50 at 5 days [1, 6] of the same compound?
Its CC50 at 5 days is 51 µg/mL.

With `O=c1[nH]cnc2c1ncn2[C@H]1CC[C@@H](CO)O1` [DDI] as the compound, how does the “resistance of viral RNA” value [2] read?
Its value is “did not show this increased resistance”.

Which results are given for `c1ccc2c(CN3CCCNCCNCCCNCC3)ccc(CN3CCCNCCNCCCNCC3)c2c1` [E, 1,1′-[1,4-naphthylenebis(methylene)]bis-1,4,8,11-tetraazacyclotetradecane]?
IC50 HIV-1 (IIIB) (HIV-1 (HTLV-IIIB); [3]): 0.07 µg/mL (≈ 0.127 µM); IC50 HIV-2 (ROD) (HIV-2 (LAV-2 ROD); [3]): 0.05 µg/mL (≈ 0.0904 µM); CC50 (HIV-1 (IIIB)) (MT-4 cells): 71 µg/mL (≈ 128 µM); CC50 (HIV-2 (ROD)) (MT-4 cells): 71 µg/mL (≈ 128 µM)

Which “n, hours addition could be delayed after infection without loss of activity” value (HIV-1 strain IIIb) does the source give for `CC(C)(C)NC(=O)[C@@H]1C[C@@H]2CCCC[C@@H]2CN1C[C@@H](O)[C@H](Cc1ccccc1)NC(=O)[C@H](CC(N)=O)NC(=O)c1ccc2ccccc2n1` [Ro31-8959] here?
Its value is 12 h.

What about the “resistance of viral RNA” value [2] of the same compound?
Its value is “did not show this increased resistance”.

What does the source list for `Cc1cc(CN2CCCNCCNCCCNCC2)c(C)cc1CN1CCCNCCNCCCNCC1` [W, 1,1′-[2,5-dimethyl-1,4-phenylenebis-(methylene)]-bis-1,4,8,11-tetraazacyclotetradecane]?
IC50 (HIV-1 (HTLV-IIIB); [3]): 0.0076 µg/mL (≈ 0.0143 µM); IC50 (HIV-2 (LAV-2 ROD); [3]): 0.0013 µg/mL (≈ 0.00245 µM); CC50 at 5 days [1, 4]: > 250 µg/mL; CC50 at 5 days [1, 5]: > 250 µg/mL

Which results are given for `Clc1cc(CN2CCCNCCNCCCNCC2)c(Cl)cc1CN1CCCNCCNCCCNCC1` [X, 1,1′-[2,5-dichloro-1,4-phenylenebis-(methylene)]-bis-1,4,8,11-tetraazacyclotetradecane]?
IC50 (HIV-1 (HTLV-IIIB); [3]): 0.0131 µg/mL (≈ 0.0229 µM); IC50 (HIV-2 (LAV-2 ROD); [3]): 0.003 µg/mL (≈ 0.00525 µM); CC50 at 5 days [1, 4]: 71.9 µg/mL (≈ 126 µM); CC50 at 5 days [1, 5]: 72.7 µg/mL (≈ 127 µM)

With `Brc1cc(CN2CCCNCCNCCCNCC2)ccc1CN1CCCNCCNCCCNCC1` [Y, 1,1′-[2-bromo-1,4-phenylenebis-(methylene)]-bis-1,4,8,11-tetraazacyclotetradecane] as the compound, how does the IC50 (HIV-1 (HTLV-IIIB); [3]) read?
Its IC50 is 0.0075 µg/mL (≈ 0.0129 µM).

What about the IC50 (HIV-2 (LAV-2 ROD); [3]) of the same compound?
The IC50 was 0.0043 µg/mL (≈ 0.00739 µM).

And the CC50 at 5 days [1, 4]?
Its CC50 at 5 days is > 250 µg/mL.

What about the CC50 at 5 days [1, 5] of the same compound?
Its CC50 at 5 days is > 250 µg/mL.

With `c1ccc(-c2cc(CN3CCCNCCNCCCNCC3)cc(CN3CCCNCCNCCCNCC3)n2)cc1` [Z, 1,1′-[6-phenyl-2,4-pyridinebis-(methylene)]-bis-1,4,8,11-tetraazacyclotetradecane] as the compound, how does the “IC50 HIV-1 (IIIB)” value (HIV-1 (HTLV-IIIB); [3]) read?
Its value is 0.0489 µg/mL (≈ 0.0843 µM).

What about the “IC50 HIV-2 (ROD)” value (HIV-2 (LAV-2 ROD); [3]) of the same compound?
Its value is 0.0246 µg/mL (≈ 0.0424 µM).

And the “CC50 (HIV-1 (IIIB))” value (MT-4 cells)?
Its value is >250 µg/mL.

And the “CC50 (HIV-2 (ROD))” value (MT-4 cells)?
Its value is >250 µg/mL.
